Experiments:
[1] = system: iPSC-derived excitatory cortical neurons (NGN2) with loss of function knockout; assay: Optopatch functional phenotype reversal in knockout (KO) disease-model neurons versus wildtype control; type: cell-based, human; details: for cell behavior projected onto phenotype/side effect space: KO cells, 8 concentrations from 0.28 to 600 μM, two replicates; for reversal of disease-model functional phenotype (radar plot of action potential features): KO disease-model cells stimulated in presence of compound, normalized to control cells
Description: In this example, iPSC-derived excitatory cortical neurons (NGN2) were grown for 30 days in a culture. The neurons expressed Optopatch proteins as described in Example 1. Two sets of neurons were grown. The first was a wildtype control line.
The cells were stimulated using blue light as described in Example 1 and their action potentials recorded as voltage traces. Recordings were made of the control cells and disease-model cells when stimulated in the absence of any test compound. Recordings were also made of the disease-model cells when stimulated in the presence of the promiscuous potassium channel blocker 4-AP and the promiscuous sodium channel blocker lamotrigine.
FIG. 23 provides radar plots representing functional phenotypes generated by a machine learning system using action potential features extracted from the recorded action potentials when the cells were stimulated by blue light. The values for the features are normalized to the control cell recordings. […] The differences in the recorded traces, select features of which are provided on the radar plots, show the functional phenotype of the disease-model.
FIG. 24 is a diagram illustrating phenotype reversal and “side effects” described by mapping extracted action potential features on the ˜300-dimensional space of recorded parameters, only two of which are shown. Extracted features for the control cell (WT) wells (green) are clustered as are those for the KO cells (red). The vector between these populations represents the phenotype (red). Drug effects (blue) are deconstructed into components along (phenotype reversal) and orthogonal to (side effects) the phenotype vector. An ideal drug would undo the effects of the mutation and move the well from the KO cluster to the control cell cluster.
FIG. 25 is a plot showing many wells projected onto the phenotype/side effect space. WT and KO wells are well separated along the phenotype direction. Application of the two compounds (8 concentrations from 0.28 to 600 μM) from FIG. 25 have increasing effects on KO cell behavior as the concentration increases. […] The connected drug points are in order of increasing concentration, and the two lines are experimental replicates on two consecutive weeks of experiment.

[2] = system: E18 rat hippocampal neurons; assay: Optopatch functional phenotypes of compounds in cultured neurons; type: cell-based; details: normalized to control vehicle, 14 days culture
Description: E18 rat hippocampal neurons were cultured for 14 days and caused to express Optopatch proteins as described in Example 1. The cells were stimulated in the presence of XE-991 (a Kv7.x blocker), ML-213 (a Kv7.x opener), a-Dendrotoxin (a Kv1.x blocker), OXO-M (a muscarinic agonist), 4AP (a promiscuous Kv blocker), Isradipine (a Cav1.x blocker), or a control vehicle. FIG. 26 provides radar plots representing generated functional phenotypes indicative of the drug-induced changes in neuronal spiking behavior along many dimensions. The action potential feature values were normalized to those for the cells simulated in the presence of the control vehicle. As shown in the radar plots, each compound provided a discernable and unique functional phenotype. […] FIG. 27 provides concentration response curves for the cells in the presence of varied concentrations of the compounds. Each symbol represents >100 cells in one well and all measurements were obtained in a single day. Thus, the present systems and methods can not only elucidate therapeutic responses of various compounds, but also show concentration-dependent responses. Moreover, as the measurements were taken in a single day, the presently disclosed systems and methods enable fast, high-throughput drug screening.

[3] = system: hiPSC-derived motor neurons; assay: Optopatch optical stimulation and voltage recording of hiPSC-derived motor neurons before and after compound addition; type: cell-based, human
From the text: Human induced pluripotent stem cells (hiPSC) were differentiated into hiPSC-derived motor neurons. The cells expressed an optogenetic proteins from the Optopatch toolkit (optical stimulation plus optical voltage reporting, e.g., CheRiff & QuasAr), which allows simultaneous optical stimulation and recording of neuronal action potentials.
The channelrhodopsin CheRiff enables action potential stimulation with blue light and the voltage-sensitive fluorescent protein QuasAr enables high-speed electrical recordings with red light. A microscope, as disclosed herein, obtained simultaneous voltage recordings from >100 individual neurons over a large (0.5×4 mm) field of view (FOV) with 1 ms temporal resolution and high signal-to-noise ratio (SNR). A digital micromirror device (DMD) in the microscope projected a fully reconfigurable optical pattern to sequentially stimulate cells while recording from many post-synaptic partners. […]
In every trace the spikes were detected and the key spike shape and timing parameters were computed. […]
Pixels in the recording that captured fluorescence from the reporters of membrane potential in each neuron co-varied in time following that cell's unique firing pattern. […] Each FOV was recorded twice, before and after addition of potassium channel opener ML-213. […]

[4] = system: E18 rat hippocampal neurons; assay: Optopatch 96-well plate firing assay, alternating columns compound/vehicle; type: cell-based; details: ML-213 at 1 μM versus vehicle wells
Description: E18 rat hippocampal neurons were cultured for 14 days and caused to express Optopatch proteins as described in Example 1. The cells were placed in wells of a 96-well plate. ML-213 at 1 μM was added to alternating columns of the plate and a control vehicle added to the remaining columns. The cells in all wells were stimulated and their action potentials recorded using a microscope as described in Example 1.
FIG. 30 provides the average firing rate during the blue light stimulus ramp for each well.
FIG. 32 provides a plot of the average number of spikes recorded for individual cells in each well during the blue light stimulus ramp.

Row | SMILES | cell behavior projected onto phenotype/side effect space [1] | reversal of disease-model functional phenotype (radar plot of action potential features) [1] | drug-induced changes in neuronal spiking behavior (functional phenotype) [2] | neuronal excitability ([3]; 1 μM ML-213, same neurons before and after addition, blue light stimulus) | resting potential and action potential firing ([3]; hiPSC-derived motor neurons) | average firing rate during the blue light stimulus ramp [4]
1 | Nc1ccncc1 [4-AP] | moves cell behavior toward and beyond WT behavior | substantially reversed the phenotype |  |  |  | 
2 | Cc1cc(C)c(NC(=O)C2CC3CCC2C3)c(C)c1 (stereo not drawn) [ML-213] |  |  | drove cellular response, as expected | clear reduction in neuronal excitability | lowers resting potential and suppresses action potential firing | dramatically reduces firing rate
3 | O=C1c2ccccc2C(Cc2ccncc2)(Cc2ccncc2)c2ccccc21 [XE-991] |  |  | drove cellular response, as expected |  |  | 
4 | Nc1nnc(-c2cccc(Cl)c2Cl)c(N)n1 [lamotrigine] | moves behavior away from both WT and KO | perturbed behavior but did not reverse the phenotype |  |  |  | 

— patent publication US20220358646A1, “CELL ACTIVITY MACHINE LEARNING” (Q-STATE BIOSCIENCES, INC., priority 2021, published 2022)
